Experimental data reported in patent EP0054589B1, “Organic phosphoric acid ester derivatives, a process for preparing the same and insecticidal, miticidal or nematocidal compositions containing the same” (priority 1980, dated 1982).
Read-outs that look alike come from different tables or passages of the source.

Key:
carmine mites = assay: Miticidal effect on carmine mite (sprayed kidney bean seedling); format: in vivo, Tetranychus cinnabarius; settings: 500 ppm
Experimental: An emulsifiable concentrate prepared as described in Formulation Example 1 and diluted to a predetermined concentration was sprayed using a spray-gun on a seedling of a kidney bean placed in a pot of 12 cm in diameter to which plant carmine mites were parasitic. After drying in air, seedlings were kept in a green house, and the number of living insects was recorded on the 7th, 14th, 21st and 28th day from the day of application to determine the control effects. Three pots were used for each treatment. The control effect was assessed by the following formula: [formula] • wherein Σ indicates sum and Cb, Tb, Cai and Tai have the following meanings. • Cb: Number of living mites in non-treated sample before application. • Tb: Number of living mites in treated sample before application. • Cai: Number of living mites in non-treated sample 7th, 14th, 21 st or 28th day from the application. • Tai: Number of living mites in treated sample 7th, 14th, 21st or 28th day from the application.

diamond back moth = assay: Insecticidal effect on diamond-back moth (cabbage leaf dip); format: in vivo, Plutella xylostella; settings: after 72 hours, 25°C
Experimental: (§1) (A) An emulsifiable concentrate prepared as described in Formulation Example 1 was diluted with water to a predetermined concentration and leaves of a cabbage were dipped into the dilute emulsion for 10 seconds followed by drying in air, and charged in a 60 ml volume cup made of vinyl chloride resin. Then, thirty 3rd-instar larvae of diamond back moth were put in each cup, and the cups were kept at 25°C. After 72 hours, percent mortality was assessed and the test was replicated 3 times for each treatment.
as §1, with “(B) An” for “(A) An”, “Example 4” for “Example 1”

tobacco cutworm [1] = assay: Insecticidal effect on tobacco cutworm (cabbage leaf dip); format: in vivo, Prodenia litura; settings: after 48 hours, 25°C
Experimental: (§2) (A) An emulsifiable concentrate prepared as described in Formulation Example 1 was diluted with water to a predetermined concentration and then cabbage leaves were dipped into the dilute solution and dried in air and placed in a 60 ml volume cup made of vinyl chloride resin. 3rd-instar larvae of tobacco cutworm were put in each cup and maintained at 25°C. After 48 hours, percent mortality was assessed. The test was replicated 3 times for each compound using 30 insects in each test.
as §2, with “(B)” for “(A)”, “3” for “1”

rice stem borer = assay: Insecticidal effect on rice stem borer, 3rd-instar larvae (rice seedling dip); format: in vivo, Chilo suppressalis; settings: after 72 hours, 25°C
Experimental: (§3) (A) A wettable powder prepared as described in Formulation Example 5 was diluted with water to a predetermined concentration. Rice seedlings were dipped into the dilute solution and placed in a 60 ml volume cup made of vinyl chloride resin, and 10 3rd-instar larvae of rice stem borer were put in each cup. The cups were capped and maintained at 25°C.
as §3, with “(B) A” for “(A) A”, “Example 7” for “Example 5”

[2] = system: carmine mites resistant to Kelthane; assay: Miticidal effect on carmine mite resistant to Kelthane (sprayed egg plant seedling); format: in vivo, Tetranychus cinnabarius; settings: Table 13, 500 ppm
Experimental: (§4) (A) An emulsifiable concentrate prepared as described in Formulation Example 1 and diluted to a predetermined concentration was sprayed using a spray-gun on a seedling of an egg plant placed in a pot of 12 cm in diametre to which plant carmine mites resistant to Kelthane were parasitic. After drying in air, seedlings were kept in a green house, and the number of living insects was recorded on the 7th, 14th, 21 st and 28th day from the day of application to determine the control effects. Three pots were used for each treatment. The control effect was assessed by the formula described in TEST EXAMPLE 7 above. Further, phytotoxicity was observed visually on the 7th day after the application.
as §4, with “(B) An” for “(A) An”, “Example 3” for “Example 1”, “in diameter” for “in diametre”, “in Test” for “in TEST”

Tomato = assay: Phytotoxicity on various crops; format: in vivo; parameters: key: Symbol — indicates that no toxicity was observed; settings: 500 ppm sprayed; checked visually after 10 days
Experimental: (§5) An emulsifiable concentrate prepared as described in Formulation Example 2 was diluted with water to a concentration of 500 ppm based on the effective ingredient and sprayed sufficiently using a spray-gun onto various test plants. The plants were kept in a green house. After 10 days from the application phytotoxicity was checked visually. The test was replicated 3 times for each compound.

Green Pepper = assay: Phytotoxicity on various crops; format: in vivo; parameters: key: Symbol — indicates that no toxicity was observed; settings: 500 ppm sprayed; checked visually after 10 days
Experimental: as §5

Apple = assay: Phytotoxicity on various crops; format: in vivo; parameters: key: Symbol — indicates that no toxicity was observed; settings: 500 ppm sprayed; checked visually after 10 days
Experimental: as §5

Cotton = assay: Phytotoxicity on various crops; format: in vivo; parameters: key: Symbol — indicates that no toxicity was observed; settings: 500 ppm sprayed; checked visually after 10 days
Experimental: as §5

Cabbage = assay: Phytotoxicity on various crops; format: in vivo; parameters: key: Symbol — indicates that no toxicity was observed; settings: 500 ppm sprayed; checked visually after 10 days
Experimental: as §5

Rice = assay: Phytotoxicity on various crops; format: in vivo; parameters: key: Symbol — indicates that no toxicity was observed; settings: 500 ppm sprayed; checked visually after 10 days
Experimental: as §5

Tea = assay: Phytotoxicity on various crops; format: in vivo; parameters: key: Symbol — indicates that no toxicity was observed; settings: 500 ppm sprayed; checked visually after 10 days
Experimental: as §5

Beet = assay: Phytotoxicity on various crops; format: in vivo; parameters: key: Symbol — indicates that no toxicity was observed; settings: 500 ppm sprayed; checked visually after 10 days
Experimental: as §5

Cucumber = assay: Phytotoxicity on various crops; format: in vivo; parameters: key: Symbol — indicates that no toxicity was observed; settings: 500 ppm sprayed; checked visually after 10 days
Experimental: as §5

egg plant = assay: Phytotoxicity on various crops; format: in vivo; parameters: key: Symbol — indicates that no toxicity was observed; settings: 500 ppm sprayed; checked visually after 10 days
Experimental: as §5

Kidney Bean = assay: Phytotoxicity on various crops; format: in vivo; parameters: key: Symbol — indicates that no toxicity was observed; settings: 500 ppm sprayed; checked visually after 10 days
Experimental: as §5

apple leaf miner = assay: Insecticidal effect on apple leaf miner (sprayed apple seedling); format: in vivo, Lithocolletis ringoniella; settings: for mortality at 500 ppm: Phyllonorycter ringoniella, 336 h
Experimental: (§6) (A) A dilute water suspension of a wettable powder prepared as described in Formulation Example 5 was sufficiently sprayed using a spray-gun on a seedling of an apple tree planted in a bisque flower pot to which plant larvae of apple leaf miner just after hatching were parasitic. Thereafter the pots were placed in a green house. Fourteen days after the spraying, bores made by larvae were broken and percent mortality was assessed for all the leaves of each seedling. Three pots were used for each treatment.
as §6, with “(B)” for “(A)”, “7” for “5”

tobacco cutworm [3] = assay: Long-lasting insecticidal effect on tobacco cutworm (sprayed cabbage plantlet); format: in vivo, Prodenia litura; settings: concentration 500 (unit not given), mortality after 48 hours; for Percent Mortality After Application 3rd Day: leaves cut on 3rd day
Experimental: (§7) (A) An emulsifiable concentrate prepared as described in Formulation Example 2 was diluted with water to a predetermined concentration and sprayed onto a cabbage plantlet in a flower pot of 15 cm in diameter using a spray-gun sufficiently and the tests plants were placed in a green house. The leaves of the plants were cut off on the 3rd, 5th, 7th, 10th and 15th day and placed in a 60 ml volume cup and 3rd-instar larvae of tobacco cutworm were put in each cup. The cups were kept in an incubator (25°C). After 48 hours, percent mortality was assessed. The tests was replicated 3 times for each compound using 30 insects in each test.
as §7, with “(B) An” for “(A) An”, “Example 3” for “Example 2”, “and 1 5th” for “and 15th”

[4] = Table 7, 100 ppm, emulsifiable concentrate as Formulation Example 1
[5] = egg plant seedling, Formulation Example 1
[6] = Table 8, 100 ppm, emulsifiable concentrate as Formulation Example 4
[7] = Table 4, 100 ppm, emulsifiable concentrate as Formulation Example 3

Question: Which results are given for CCCCSP(=O)(OCC)Oc1ccc2c(c1)OC(C)=CC2(C)C (stereo not drawn) [Compound No. 5]?
Answer: Control Effect (%) (carmine mites): 91.2%; Number of Living Mites after Application 7th Day (carmine mites): 0; Number of Living Mites after Application 14th Day (carmine mites): 0; Number of Living Mites after Application 21st Day (carmine mites): 16; Number of Living Mites after Application 28th Day (carmine mites): 38; Percent Mortality (%) (diamond back moth; [4]): 100%; Percent Mortality (%) (tobacco cutworm [1]; Table 3, 500 ppm, emulsifiable concentrate as Formulation Example 1): 100%; Percent Mortality (%) (rice stem borer; Table 1, 500 ppm, wettable powder as Formulation Example 5): 100%; Number of Living Mites after Application 7th Day [2, 5]: 0; Number of Living Mites after Application 14th Day [2, 5]: 0; Number of Living Mites after Application 21st Day [2, 5]: 9; Number of Living Mites after Application 28th Day [2, 5]: 29; Control Effect (%) ([2]; from mite counts on 7th, 14th, 21st and 28th day): 97.4%; Phytotoxicity: Tomato (Tomato): —; Phytotoxicity: Green Pepper (Green Pepper): —; Phytotoxicity: Apple (Apple): —; Phytotoxicity: Cotton (Cotton): —; Phytotoxicity: Cabbage (Cabbage): —; Phytotoxicity: Rice (Rice): —; Phytotoxicity: Tea (Tea): —; Phytotoxicity: Beet (Beet): —; Phytotoxicity: Cucumber (Cucumber): —; Phytotoxicity: Egg Plant (egg plant): —; Phytotoxicity: Kidney Bean (Kidney Bean): —

Question: Which “Percent Mortality (%)” value (diamond back moth; [6]) does the source give for CCCSP(=S)(OCC)Oc1cccc2c1C(C)=CC(C)(C)O2 (stereo not drawn) [Compound No. 26] here?
Answer: The value was 96.7%.

Question: And the “Percent Mortality (%)” value (tobacco cutworm [1]; [7])?
Answer: Its value is 100%.

Question: What about the “Percent Mortality (%)” value (rice stem borer; Table 2, 100 ppm, wettable powder as Formulation Example 7) of the same molecule?
Answer: The value was 100%.

Question: What about the “Phytotoxicity: Tomato” value (Tomato) of the same molecule?
Answer: The value was “—”.

Question: And the “Phytotoxicity: Green Pepper” value (Green Pepper)?
Answer: Its value is “—”.

Question: What about the “Phytotoxicity: Apple” value (Apple) of the same molecule?
Answer: The value was “—”.

Question: What about the “Phytotoxicity: Cotton” value (Cotton) of the same molecule?
Answer: The value was “—”.

Question: What about the “Phytotoxicity: Cabbage” value (Cabbage) of the same molecule?
Answer: Its value is “—”.

Question: And the “Phytotoxicity: Rice” value (Rice)?
Answer: The value was “—”.

Question: What about the “Phytotoxicity: Tea” value (Tea) of the same molecule?
Answer: Its value is “—”.

Question: What about the “Phytotoxicity: Beet” value (Beet) of the same molecule?
Answer: The value was “—”.

Question: What about the “Phytotoxicity: Cucumber” value (Cucumber) of the same molecule?
Answer: The value was “—”.

Question: And the “Phytotoxicity: Egg Plant” value (egg plant)?
Answer: The value was “—”.

Question: What about the “Phytotoxicity: Kidney Bean” value (Kidney Bean) of the same molecule?
Answer: Its value is “—”.

Question: For COP(=O)(OC)OC=C(Cl)Cl [DDVP, dimethyl 2,2-dichlorovinyl dimethyl phosphate, reference compound], which “Percent Mortality (%)” value (diamond back moth; [4]) is on record?
Answer: The value was 23.3%.

Question: And the “Percent Mortality (%)” value (diamond back moth; Table 7, 500 ppm)?
Answer: Its value is 76.7%.

Question: And the “Percent Mortality (%)” value (diamond back moth; [6])?
Answer: Its value is 6.7%.

Question: What about the “Percent Mortality (%)” value (diamond back moth; Table 8, 500 ppm) of the same molecule?
Answer: Its value is 83.3%.

Question: What about the “Percent Mortality (%)” value (tobacco cutworm [1]; [7]) of the same molecule?
Answer: Its value is 46.7%.

Question: For CCOP(=S)(OCC)Oc1nc(Cl)c(Cl)cc1Cl [Dursban, 0,0-diethyl 0-(3,5,6-trichloro-2-pyridyl)phosphorothioate, reference compound], which mortality at 500 ppm (apple leaf miner; read-out: Percent Morality (%)) is on record?
Answer: The mortality at 500 ppm was 29.4%.

Question: For CCOC(=O)C(SP(=S)(OC)OC)c1ccccc1 (stereo not drawn) [Elsan, S-(α-ethoxy-carbonyl benzyl O,O-dimethyl phosphorodithioate, reference compound], which “Percent Morality (%)” value (apple leaf miner; Table 10, 500 ppm, fourteen days after spraying, wettable powder as Formulation Example 5, 20160 min) is on record?
Answer: Its value is 13.2%.

Question: For COP1(=S)OCc2ccccc2O1 (stereo not drawn) [Salithion, 2-methoxy-4H-benzo-1,3,2-dioxaphosphorin 2-sulphide, reference compound], which mortality at 500 ppm (apple leaf miner; Table 10, 500 ppm, fourteen days after spraying, wettable powder as Formulation Example 5, read-out: Percent Morality (%)) is on record?
Answer: The mortality at 500 ppm was 95%.

Question: What about the “Percent Mortality After Application 3rd Day” value (tobacco cutworm [3]; Table 5) of the same molecule?
Answer: The value was 20%.

Question: And the “Percent Mortality After Application 5th Day” value (tobacco cutworm [3]; Table 5, leaves cut on 5th day)?
Answer: The value was 0%.

Question: What about the “Percent Mortality After Application 7th Day” value (tobacco cutworm [3]; Table 5, leaves cut on 7th day) of the same molecule?
Answer: The value was 0%.

Question: What about the “Percent Mortality After Application 10th Day” value (tobacco cutworm [3]; Table 5, leaves cut on 10th day) of the same molecule?
Answer: Its value is 0%.

Question: And the “Percent Mortality After Application 15th Day” value (tobacco cutworm [3]; Table 5, leaves cut on 15th day)?
Answer: Its value is 0%.

Question: And the “Percent Mortality After Application 3rd Day” value (tobacco cutworm [3]; Table 6)?
Answer: The value was 0%.

Question: And the “Percent Mortality After Application Immediately after Application” value (tobacco cutworm [3]; Table 6)?
Answer: Its value is 100%.

Question: Which mortality at 500 ppm (apple leaf miner; Table 11, 500 ppm, fourteen days after spraying, wettable powder as Formulation Example 7, read-out: Percent Mortality (%)) does the source give for COc1nn(CSP(=S)(OC)OC)c(=O)s1 [Supracide, O,O-dimethyl-S-[5-methoxy-1,3,4-thiadiazol-2(3H)-onyl(3)-methyl]dithiophosphate, reference compound] here?
Answer: Its mortality at 500 ppm is 72%.
